Tests used:
LoVo-Dox = experiment: SRB colorimetric cell growth inhibition assay, LoVo-Dox (MDR); format: cell-based
Procedure, shortened: (§1)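 Human tumour cells were exposed continuously to the test sample, and growth and viability were quantified by sulforhodamine B staining. Means ± SD came from triplicate wells, and GI, TGI (cytostatic) and LC (cell killing) parameters were derived.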

LoVo = experiment: SRB colorimetric cell growth inhibition assay, LoVo; format: cell-based
Procedure, shortened: as §1

SK-BR-3 = experiment: SRB colorimetric cell growth inhibition assay, SK-BR-3; format: cell-based
Procedure, shortened: as §1

SK-MEL-28 = experiment: SRB colorimetric cell growth inhibition assay, SK-MEL-28; format: cell-based
Procedure, shortened: as §1

PANC-1 = experiment: SRB colorimetric cell growth inhibition assay, PANC-1; format: cell-based
Procedure, shortened: as §1

DU-145 = experiment: SRB colorimetric cell growth inhibition assay, DU-145; format: cell-based
Procedure, shortened: as §1

A-549 = experiment: SRB colorimetric cell growth inhibition assay, A-549; format: cell-based
Procedure, shortened: as §1

IGROV = experiment: SRB colorimetric cell growth inhibition assay, IGROV; format: cell-based
Procedure, shortened: as §1

LNCaP = experiment: SRB colorimetric cell growth inhibition assay, LNCaP; format: cell-based
Procedure, shortened: as §1

IGROV-ET = experiment: SRB colorimetric cell growth inhibition assay, IGROV-ET (ET-743 resistant); format: cell-based
Procedure, shortened: as §1

human topoisomerase I = target: T1, human topoisomerase I (Homo sapiens, UniProt P11387); experiment: Topoisomerase I DNA relaxation assay (supercoiled plasmid DNA); format: biochemical; conditions: supercoiled plasmid DNA, each compound tested at 1 μM, agarose gel with ethidium bromide
T1 sequence (P11387 1-765): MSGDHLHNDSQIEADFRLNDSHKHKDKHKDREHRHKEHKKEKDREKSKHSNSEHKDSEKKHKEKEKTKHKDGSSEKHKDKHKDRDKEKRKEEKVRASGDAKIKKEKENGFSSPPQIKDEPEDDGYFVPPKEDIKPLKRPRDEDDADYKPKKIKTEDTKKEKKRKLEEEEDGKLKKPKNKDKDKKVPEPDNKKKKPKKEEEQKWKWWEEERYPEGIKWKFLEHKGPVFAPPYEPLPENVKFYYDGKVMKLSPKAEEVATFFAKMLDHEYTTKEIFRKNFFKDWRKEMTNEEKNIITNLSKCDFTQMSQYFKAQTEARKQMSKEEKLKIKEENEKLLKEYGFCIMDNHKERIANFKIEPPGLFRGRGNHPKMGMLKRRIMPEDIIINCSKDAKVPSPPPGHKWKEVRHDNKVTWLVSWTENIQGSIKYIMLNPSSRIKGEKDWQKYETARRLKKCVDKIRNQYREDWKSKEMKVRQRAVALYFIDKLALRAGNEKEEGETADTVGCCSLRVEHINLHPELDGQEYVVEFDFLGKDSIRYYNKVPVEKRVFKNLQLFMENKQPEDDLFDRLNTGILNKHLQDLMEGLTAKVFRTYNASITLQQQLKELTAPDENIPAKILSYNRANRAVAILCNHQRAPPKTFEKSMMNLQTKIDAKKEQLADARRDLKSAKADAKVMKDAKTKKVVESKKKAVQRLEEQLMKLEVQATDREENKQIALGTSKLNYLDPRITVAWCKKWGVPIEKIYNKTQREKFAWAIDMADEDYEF
Procedure: Two assays, based on DNA relaxation and DNA cleavage (Bailly, C. DNA relaxation and cleavage assays to study topoisomerase I inhibitors. Methods Enzymol. 2001, 340, 610-623) were used evaluate the effects of the lamellarin analogs on the catalytic activity of human topoisomerase I.
In the first assay, a supercoiled plasmid DNA was relaxed with topoisomerase I in the absence or presence of the test compounds, each tested at 1 μM. DNA relaxation products were then resolved by gel electrophoresis on agarose gels containing ethidium bromide to stain the DNA.

HT-29 = experiment: SRB colorimetric cell growth inhibition assay, HT-29; format: cell-based
Procedure, shortened: as §1

K-562 = experiment: SRB colorimetric cell growth inhibition assay, K-562; format: cell-based
Procedure, shortened: as §1

COc1cc(-c2c3n(c4c(=O)oc5cc(OC(=O)[C@@H](N)C(C)C)c(OC)cc5c24)CCc2cc(OC(=O)[C@@H](N)C(C)C)c(OC)cc2-3)ccc1OC(=O)[C@@H](N)C(C)C [Compound 135]
IC (TGI) (LoVo-Dox; Homo sapiens, LOVO-DOX, total growth inhibition (cytostatic effect), read-out: TGI LOVO-DOX): 8.76 µM
CC50 (LoVo-Dox; Homo sapiens, read-out: LC50 LOVO-DOX, LOVO-DOX, cell killing (cytotoxic effect)): 8.76 µM
GI50 (LoVo-Dox; LOVO-DOX, GI=growth inhibition, read-out: GI50 LOVO-DOX): 3.8 µM
CC50 (LoVo; Homo sapiens, LoVo, read-out: LC50 LOVO, LOVO, cell killing (cytotoxic effect)): 8.76 µM
IC (TGI) (LoVo; Homo sapiens, LOVO, total growth inhibition (cytostatic effect), read-out: TGI LOVO): 8.76 µM
GI50 (LoVo; LOVO, GI=growth inhibition, read-out: GI50 LOVO): 2690 nM
GI50 (SK-BR-3; SK-BR-3, GI=growth inhibition, read-out: GI50 SK-BR-3): 579 nM
TGI SK-BR-3 (SK-BR-3; SK-BR-3, total growth inhibition (cytostatic effect)): 2.61E−06 Molar
CC50 (SK-BR-3; human): 8.76 µM
GI50 (SK-MEL-28; MEL-28, GI=growth inhibition, read-out: GI50 MEL-28): 1670 nM
TGI MEL-28 (SK-MEL-28; MEL-28, total growth inhibition (cytostatic effect)): 5.00E−06 Molar
CC50 (SK-MEL-28; human): 8.76 µM
IC (TGI) (PANC-1; Homo sapiens, PANC-1, PANC-1, total growth inhibition (cytostatic effect), read-out: TGI PANC-1): 5.53 µM
CC50 (PANC-1; Homo sapiens, PANC-1, read-out: LC50 PANC-1, PANC-1, cell killing (cytotoxic effect)): 8.76 µM
GI50 (PANC-1; PANC-1, GI=growth inhibition, read-out: GI50 PANC-1): 2110 nM
GI50 (DU-145; DU-145, GI=growth inhibition, read-out: GI50 DU-145): 1600 nM
TGI DU-145 (DU-145; DU-145, total growth inhibition (cytostatic effect)): 3.78E−06 Molar
CC50 (DU-145; human): 8.76 µM
GI50 (A-549; A-549, GI=growth inhibition, read-out: GI50 A-549): 3.34 µM
IC (TGI) (A-549; Homo sapiens, A549, A-549, total growth inhibition (cytostatic effect), read-out: TGI A-549): 8.76 µM
CC50 (A-549; Homo sapiens, A549, read-out: LC50 A-549, A-549, cell killing (cytotoxic effect)): 8.76 µM
GI50 (IGROV; IGROV, GI=growth inhibition, read-out: GI50 IGROV): 2100 nM
TGI IGROV (IGROV; IGROV, total growth inhibition (cytostatic effect)): 4.68E−06 Molar
CC50 (IGROV; human): 8.76 µM
GI50 (LNCaP; LN-caP, GI=growth inhibition, read-out: GI50 LN-caP): 783 nM
TGI LN-caP (LNCaP; LN-caP, total growth inhibition (cytostatic effect)): 2.02E−06 Molar
CC50 (LNCaP; human): 4.91 µM
GI50 (IGROV-ET; IGROV-ET, GI=growth inhibition, read-out: GI50 IGROV-ET): 586 nM
TGI IGROV-ET (IGROV-ET; IGROV-ET, total growth inhibition (cytostatic effect)): 1.98E−06 Molar
CC50 (IGROV-ET; human): 6.33 µM
stimulation of DNA cleavage by topoisomerase I / inhibition of topoisomerase I (nicked DNA band) in DNA relaxation assay (human topoisomerase I): No effect
GI50 (HT-29; HT-29, GI=growth inhibition, read-out: GI50 HT-29): 1150 nM
IC (TGI) (HT-29; Homo sapiens, HT-29, HT-29, total growth inhibition (cytostatic effect), read-out: TGI HT-29): 4.82 µM
CC50 (HT-29; Homo sapiens, HT-29, read-out: LC50 HT-29, HT-29, cell killing (cytotoxic effect)): 8.76 µM
IC (TGI) (K-562; Homo sapiens, K562, K-562, total growth inhibition (cytostatic effect), read-out: TGI K-562): 6.82 µM
CC50 (K-562; Homo sapiens, K562, read-out: LC50 K-562, K-562, cell killing (cytotoxic effect)): 8.76 µM
GI50 (K-562; K-562, GI=growth inhibition, read-out: GI50 K-562): 1070 nM

COc1cc(-c2c3n(c4c(=O)oc5cc(OC(=O)c6cc(F)c(F)c(F)c6F)c(OC)cc5c24)CCc2cc(OC(=O)c4cc(F)c(F)c(F)c4F)c(OC)cc2-3)ccc1OC(=O)c1cc(F)c(F)c(F)c1F [Compound 139]
stimulation of DNA cleavage by topoisomerase I / inhibition of topoisomerase I (nicked DNA band) in DNA relaxation assay (human topoisomerase I): inactive

COc1cc(-c2c3n(c4c(=O)oc5cc(OC(=O)[C@@H](NC(=O)OC(C)(C)C)C(C)C)c(OC)cc5c24)CCc2cc(OC(=O)[C@@H](NC(=O)OC(C)(C)C)C(C)C)c(OC)cc2-3)ccc1OC(=O)[C@@H](NC(=O)OC(C)(C)C)C(C)C [Compound 144]
stimulation of DNA cleavage by topoisomerase I / inhibition of topoisomerase I (nicked DNA band) in DNA relaxation assay (human topoisomerase I): No effect

— patent US7396837B2, “Antitumoral analogs of lamellarins” (Pharma Mar, S.A.U., priority 2002, dated 2008)
